In ChEMBL document CHEMBL4699612, “Discovery of thiosemicarbazone-containing compounds with potent anti-proliferation activity against drug-resistant K562/A02 cells” (Bioorg Med Chem Lett, 2020):
Calls of active or inactive are those of the source. The rule behind the calls is not given here.

What was measured:
K562/A02 [1] = assay: Induction of apoptosis in human K562/A02 cells assessed as late apoptotic cells at 1 uM incubated for 48 hrs by annexin V and propidium iodide staining based flow cytometry (reference value: 0.83 %); type: functional
K562/A02 [2] = assay: Induction of apoptosis in human K562/A02 cells assessed as increase in cleaved PARP expression incubated for 48 hrs by Western blot analysis; type: functional, cell-based; details: dose microM 1-3, time 48.0 hrs
K562/A02 [3] = assay: Up regulation of acetylated histone H3 expression level in human K562/A02 cells at 1 to 3 uM measured after 48 hrs by Western blot analysis; type: functional, cell-based; details: dose microM 1-3, time 48.0 hrs
K562 [4] = assay: Antiproliferative activity against human K562 cells by MTT assay; type: functional, cell-based
K562/A02 [5] = assay: Induction of ROS generation in human K562/A02 cells by DCFHA-DA based assay; type: functional, cell-based; details: dose microM 1-3
K562/A02 [6] = assay: Induction of ROS generation in human K562/A02 cells at 3 uM in presence of ROS scavenger, NAC by DCFHA-DA based assay; type: functional, cell-based
K562/A02 [7] = assay: Up regulation of acetylated histone H4 expression level in human K562/A02 cells at 1 to 3 uM measured after 48 hrs by Western blot analysis; type: functional, cell-based; details: dose microM 1-3, time 48.0 hrs
K562/A02 [8] = assay: Induction of apoptosis in human K562/A02 cells assessed as early apoptotic cells at 1 uM incubated for 48 hrs by annexin V and propidium iodide staining based flow cytometry (reference value: 1.42 %); type: functional
K562/A02 [9] = assay: Induction of apoptosis in human K562/A02 cells assessed as viable cells at 3 uM incubated for 48 hrs by annexin V and propidium iodide staining based flow cytometry (reference value: 92.94 %); type: functional; details: read-out: Activity
K562/A02 [10] = assay: Induction of apoptosis in human K562/A02 cells assessed as increase in cleaved caspase 3 expression incubated for 48 hrs by Western blot analysis; type: functional, cell-based; details: dose microM 1-3, time 48.0 hrs
K562/A02 [11] = assay: Induction of apoptosis in human K562/A02 cells assessed as decrease in Bcl2 expression incubated for 48 hrs by Western blot analysis; type: functional, cell-based; details: dose microM 1-3, time 48.0 hrs
K562/A02 [12] = assay: Induction of apoptosis in human K562/A02 cells assessed as late apoptotic cells at 3 uM incubated for 48 hrs by annexin V and propidium iodide staining based flow cytometry (reference value: 0.83 %); type: functional
K562/A02 [13] = assay: Cytotoxicity against human K562/A02 cells at 3 uM incubated for 24 hrs in presence of ROS scavenger, NAC by MTT assay; type: functional, cell-based
K562/A02 [14] = assay: Induction of apoptosis in human K562/A02 cells assessed as necrotic cells at 1 uM incubated for 48 hrs by annexin V and propidium iodide staining based flow cytometry (reference value: 4.81 %); type: functional
K562/A02 [15] = assay: Effect on P-gp activity in human K562/A02 cells; type: cell-based; details: filed as modulator
Histone deacetylase 8 = target: T1, Histone deacetylase 8 (Homo sapiens, UniProt Q9BY41); assay: Inhibition of recombinant human HDAC8 using Boc-Lys(Ac)-AMC as substrate incubated for 60 mins by fluorimetric assay
T1 sequence (Q9BY41 whole entry): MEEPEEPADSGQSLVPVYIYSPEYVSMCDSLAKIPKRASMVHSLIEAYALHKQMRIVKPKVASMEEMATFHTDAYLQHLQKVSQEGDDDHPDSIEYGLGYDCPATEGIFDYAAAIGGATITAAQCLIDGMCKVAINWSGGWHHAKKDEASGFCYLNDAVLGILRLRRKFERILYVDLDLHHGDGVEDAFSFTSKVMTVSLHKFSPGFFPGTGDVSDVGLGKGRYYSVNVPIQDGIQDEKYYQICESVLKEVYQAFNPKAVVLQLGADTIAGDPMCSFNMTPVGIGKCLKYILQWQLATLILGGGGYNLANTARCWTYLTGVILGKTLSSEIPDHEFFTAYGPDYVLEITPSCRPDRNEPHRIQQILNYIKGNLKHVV

K562/A02 [16] = assay: Induction of apoptosis in human K562/A02 cells assessed as necrotic cells at 3 uM incubated for 48 hrs by annexin V and propidium iodide staining based flow cytometry (reference value: 4.81 %); type: functional
[17] = Resistance index, ratio of IC50 for human K562/A02 cells to IC50 for human K562 cells; type: functional; design: reference not given here
[18] = target: T2, Protein deacetylase HDAC6 (Homo sapiens, UniProt Q9UBN7); assay: Inhibition of recombinant human HDAC6 using Boc-Lys(Ac)-AMC as substrate incubated for 60 mins by fluorimetric assay
T2 sequence (Q9UBN7 whole entry): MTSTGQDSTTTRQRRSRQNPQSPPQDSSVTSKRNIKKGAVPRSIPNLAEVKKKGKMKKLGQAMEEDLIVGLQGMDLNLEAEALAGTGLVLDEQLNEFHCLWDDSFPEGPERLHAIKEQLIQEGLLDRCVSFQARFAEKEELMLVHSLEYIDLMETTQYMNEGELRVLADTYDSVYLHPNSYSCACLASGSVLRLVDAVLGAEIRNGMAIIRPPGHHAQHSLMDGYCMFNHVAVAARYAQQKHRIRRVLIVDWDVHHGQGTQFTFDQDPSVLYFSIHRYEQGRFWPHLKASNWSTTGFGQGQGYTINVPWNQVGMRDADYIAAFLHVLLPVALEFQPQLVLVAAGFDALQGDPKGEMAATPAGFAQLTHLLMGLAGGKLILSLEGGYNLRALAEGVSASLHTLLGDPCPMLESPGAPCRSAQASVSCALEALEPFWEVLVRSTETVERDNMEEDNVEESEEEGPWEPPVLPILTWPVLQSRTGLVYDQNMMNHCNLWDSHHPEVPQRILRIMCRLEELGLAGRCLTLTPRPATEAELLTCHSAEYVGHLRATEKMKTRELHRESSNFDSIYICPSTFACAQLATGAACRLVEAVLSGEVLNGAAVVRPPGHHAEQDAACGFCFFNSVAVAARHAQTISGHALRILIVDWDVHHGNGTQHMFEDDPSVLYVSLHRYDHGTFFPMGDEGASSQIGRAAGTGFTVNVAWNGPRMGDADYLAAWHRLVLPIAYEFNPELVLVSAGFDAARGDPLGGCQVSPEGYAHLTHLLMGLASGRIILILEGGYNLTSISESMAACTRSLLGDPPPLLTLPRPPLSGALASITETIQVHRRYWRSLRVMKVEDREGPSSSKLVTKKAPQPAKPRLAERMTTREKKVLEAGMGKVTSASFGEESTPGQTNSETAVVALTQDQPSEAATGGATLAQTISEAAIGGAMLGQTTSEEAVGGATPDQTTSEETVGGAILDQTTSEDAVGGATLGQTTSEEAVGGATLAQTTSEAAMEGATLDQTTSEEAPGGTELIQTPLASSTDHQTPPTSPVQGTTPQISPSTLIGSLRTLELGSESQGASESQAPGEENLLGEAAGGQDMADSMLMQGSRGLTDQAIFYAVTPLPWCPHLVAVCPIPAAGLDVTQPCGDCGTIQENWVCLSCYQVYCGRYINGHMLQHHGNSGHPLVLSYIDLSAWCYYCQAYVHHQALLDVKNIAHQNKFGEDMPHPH

K562/A02 [19] = assay: Antiproliferative activity against human K562/A02 cells overexpressing P-gp by MTT assay; type: functional, cell-based
K562/A02 [20] = assay: Effect on P-gp expression in human K562/A02 cells overexpressing P-gp; type: functional, cell-based
K562/A02 [21] = assay: Induction of apoptosis in human K562/A02 cells assessed as viable cells at 1 uM incubated for 48 hrs by annexin V and propidium iodide staining based flow cytometry (reference value: 92.94 %); type: functional; details: read-out: Activity
K562/A02 [22] = assay: Induction of apoptosis in human K562/A02 cells assessed as early apoptotic cells at 3 uM incubated for 48 hrs by annexin V and propidium iodide staining based flow cytometry (reference value: 1.42 %); type: functional
Histone deacetylase 1 = Histone deacetylase 1 (Homo sapiens, UniProt Q13547); assay: Inhibition of recombinant human HDAC1 using Boc-Lys(Ac)-AMC as substrate incubated for 60 mins by fluorimetric assay
Histone deacetylase 1, sequence (Q13547 whole entry): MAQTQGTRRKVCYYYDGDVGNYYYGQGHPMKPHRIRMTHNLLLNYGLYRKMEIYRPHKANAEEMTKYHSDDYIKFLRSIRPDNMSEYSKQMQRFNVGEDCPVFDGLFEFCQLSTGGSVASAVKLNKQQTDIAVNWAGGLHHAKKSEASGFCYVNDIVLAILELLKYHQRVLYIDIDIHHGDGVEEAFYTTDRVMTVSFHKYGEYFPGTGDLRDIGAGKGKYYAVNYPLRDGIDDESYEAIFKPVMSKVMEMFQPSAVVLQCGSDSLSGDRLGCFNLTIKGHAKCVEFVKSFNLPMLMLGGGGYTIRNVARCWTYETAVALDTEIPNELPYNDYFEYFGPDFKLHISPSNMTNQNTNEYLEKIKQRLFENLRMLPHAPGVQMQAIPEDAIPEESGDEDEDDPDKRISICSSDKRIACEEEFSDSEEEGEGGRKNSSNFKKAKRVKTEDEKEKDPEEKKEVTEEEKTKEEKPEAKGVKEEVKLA

K562/A02 [23] = assay: Induction of apoptosis in human K562/A02 cells assessed as increase in Bax expression incubated for 48 hrs by Western blot analysis; type: functional, cell-based; details: dose microM 1-3, time 48.0 hrs
K562 [24] = assay: Induction of ROS generation in human K562 cells at 1 to 3 uM by DCFHA-DA based assay; type: functional, cell-based; details: dose microM 1-3

Compound: C/C(=N\NC(=S)NCCCCCC(=O)NO)c1ccc(Br)cc1
- Activity (K562/A02 [1]): 52%
- Activity (K562/A02 [2]): Dose-dependent effect
- Activity (K562/A02 [3]): Active
- IC50 (K562 [4]): 960 nM
- Activity (K562/A02 [5]): Dose-dependent effect
- Activity (K562/A02 [6]): inactive
- Activity (K562/A02 [7]): Active
- Activity (K562/A02 [8]): 16.35%
- viability at 3 µM (K562/A02 [9]): 18.9%
- Activity (K562/A02 [10]): Dose-dependent effect
- Activity (K562/A02 [11]): Dose-dependent effect
- Activity (K562/A02 [12]): 53.69%
- Activity (K562/A02 [13]): inactive
- Activity (K562/A02 [14]): 4.4%
- Activity (K562/A02 [15]): Active
- IC50 (Histone deacetylase 8): > 5000 nM
- Activity (K562/A02 [16]): 5.18%
- Ratio IC50 [17]: 0.46
- IC50 [18]: 34.6 nM
- IC50 (K562/A02 [19]): 440 nM
- Activity (K562/A02 [20]): Active
- viability at 1 µM (K562/A02 [21]): 27.2%
- Activity (K562/A02 [22]): 22.28%
- IC50 (Histone deacetylase 1): 38.6 nM
- Activity (K562/A02 [23]): Dose-dependent effect
- Activity (K562 [24]): inactive
